Laboratory results reported in ChEMBL document CHEMBL5036321, “Sinularamides A-G, Terpenoid-Derived Spermidine and Spermine Conjugates with Casitas B-Lineage Lymphoma Proto-Oncogene B (Cbl-b) Inhibitory Activities from a Sinularia sp. Soft Coral” (J Nat Prod, 2021).

Biological target: E3 ubiquitin-protein ligase CBL-B (Homo sapiens, UniProt Q13191)
Test: Inhibition of Cbl-b (unknown origin) assessed as inhibition of Cbl-b dependent auto-ubiquitination in presence of ATP measured after 13 hrs by fluorescence microplate reader assay

Chain of E3 ubiquitin-protein ligase CBL-B (Q13191 whole entry): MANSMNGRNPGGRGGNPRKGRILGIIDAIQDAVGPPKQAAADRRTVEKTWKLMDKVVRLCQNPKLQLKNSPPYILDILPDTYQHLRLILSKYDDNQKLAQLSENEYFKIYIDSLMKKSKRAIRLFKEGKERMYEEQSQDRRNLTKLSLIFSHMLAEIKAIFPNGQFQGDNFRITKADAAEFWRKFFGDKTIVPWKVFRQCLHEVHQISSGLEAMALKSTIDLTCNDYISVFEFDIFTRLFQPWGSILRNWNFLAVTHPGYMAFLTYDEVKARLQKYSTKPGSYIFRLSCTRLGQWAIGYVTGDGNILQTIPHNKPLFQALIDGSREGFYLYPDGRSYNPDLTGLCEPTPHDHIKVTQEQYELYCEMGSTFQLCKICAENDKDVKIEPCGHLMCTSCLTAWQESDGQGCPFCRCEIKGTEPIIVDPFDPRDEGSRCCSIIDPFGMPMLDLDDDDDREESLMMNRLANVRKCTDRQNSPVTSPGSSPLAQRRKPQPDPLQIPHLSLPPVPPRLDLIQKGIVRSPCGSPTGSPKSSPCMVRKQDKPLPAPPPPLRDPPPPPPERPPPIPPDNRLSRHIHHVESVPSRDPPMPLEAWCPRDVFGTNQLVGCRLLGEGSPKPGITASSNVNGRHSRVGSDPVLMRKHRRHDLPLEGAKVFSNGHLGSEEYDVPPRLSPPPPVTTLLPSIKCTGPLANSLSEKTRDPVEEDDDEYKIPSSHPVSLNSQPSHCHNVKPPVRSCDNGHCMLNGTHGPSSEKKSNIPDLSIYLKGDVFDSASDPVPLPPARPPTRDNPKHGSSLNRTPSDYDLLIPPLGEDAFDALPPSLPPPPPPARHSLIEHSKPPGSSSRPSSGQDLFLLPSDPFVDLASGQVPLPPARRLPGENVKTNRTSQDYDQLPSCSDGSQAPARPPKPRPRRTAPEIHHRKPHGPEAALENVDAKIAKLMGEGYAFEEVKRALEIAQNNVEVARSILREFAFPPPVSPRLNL

CC(C)=CCC/C(C)=C/CC/C(C)=C/CC/C(C)=C/C(=O)NCCC[N+](C)(C)CCCC[N+](C)(C)CCCNC(=O)/C=C(\C)CC/C=C(\C)CC/C=C(\C)CCC=C(C)C
IC50: 6.5 µM
